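Test compounds were applied to cells in 96-well plates for 48 hours at 5 doses. TGI: total growth inhibition.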
Assays:
Assay in all cases: NCI-60 cell line screen, 48 h
OVCAR-5 ovarian = tested on: OVCAR-5 ovarian
SK-MEL-2 melanoma = tested on: SK-MEL-2 melanoma
NCI-H460 lung = tested on: NCI-H460 lung
SF-295 CNS = tested on: SF-295 CNS
SR leukemia = tested on: SR leukemia
HS 578T breast = tested on: HS 578T breast
HOP-62 NSCLC = tested on: HOP-62 NSCLC
LOX IMVI melanoma = tested on: LOX IMVI melanoma
M14 melanoma = tested on: M14 melanoma
SNB-75 CNS = tested on: SNB-75 CNS

Structure (SMILES)	TGI (OVCAR-5 ovarian) [µM]	TGI (SK-MEL-2 melanoma) [µM]	TGI (NCI-H460 lung) [µM]	TGI (SF-295 CNS) [µM]	TGI (SR leukemia) [µM]	TGI (HS 578T breast) [µM]	TGI (HOP-62 NSCLC) [µM]	TGI (LOX IMVI melanoma) [µM]	TGI (M14 melanoma) [µM]	TGI (SNB-75 CNS) [µM]
CC1(C)C2CCC1(C)[C@H](n1c(=O)n([C@@H]3CC4CCC3(C)C4(C)C)c(=O)n([C@@H]3CC4CCC3(C)C4(C)C)c1=O)C2	> 100	72.7	> 100	> 100	> 100	> 100	> 100	> 100	> 100	46.5
COc1cccc2c1OC1(C=C2)Oc2ccccc2C(=O)N1C (stereo not given)	> 100	> 100	98.6	97.9	54.2	81.8	> 100	14.5	> 100	74.1
Cc1cn(C2CC(O)C(CO)O2)c(=O)[nH]c1=O (stereo not given)	> 5000	> 5000	> 5000	> 5000	> 5000	> 5000	4630	> 5000	> 5000	> 4500
CCCCCCOc1ccc(C(=O)NOC)cc1	> 100	> 100	> 100	> 100	> 100	> 100	> 100	> 100	> 100	> 100
CS(=O)c1ncc2c(n1)-c1ccccc1OC2 (stereo not given)	> 100	> 100	> 100	> 100	> 100	> 100	> 100	> 100	> 100	> 100
Cc1cccc2c1CC1(C2)Cc2c(C)cccc2C1=O (stereo not given)	> 100	38.3	83.2	68.8	37.4	> 100	54.5	38.7	77.7	70.7
O=C(/C=C/c1ccc2c(c1)OCO2)CC(=O)C(=O)c1c[nH]c2ccccc12	> 100	> 100	> 100	> 100	> 100	68.1	> 100	> 100	> 100	96.6
CSC(=S)N/N=C(\C)c1ccc(S(=O)(=O)N(C)c2ccccc2)cc1	> 100	> 100	> 100	> 100	> 100	87	> 100	> 100	> 100	> 100
CCOC(=O)C1=C(C)C2C=C(c3cccs3)CC(c3ccc(Cl)cc3)=C2OC1=O (stereo not given)	> 100	> 100	> 100	> 100	50	> 100	> 100	37.9	> 100	> 100
CCCC(=O)OC1CC(n2cc(F)c(=O)[nH]c2=O)OC1COP(=O)(OCC(Cl)(Cl)Cl)OCC(Cl)(Cl)Cl (stereo not given)	> 100	> 100	28.8	16.8	99.4	76.3	> 100	> 69.6	> 31.6	76.6
CCC1(CC)C(=O)NN(C(=O)c2ccccc2)C1=O	> 100	> 100	> 100	> 100	> 100	> 100	> 100	> 100	> 100	> 100
COC(=O)C1CCC(=O)N1C(c1ccc(OC)cc1)c1ccc2c(c1)OCO2 (stereo not given)	> 100	> 100	> 100	48	> 100	> 100	> 100	> 100	> 100	78.9

Reference: PubChem BioAssay (NCI)
